This assay deals with T1, human GABAA ρ2 receptor (homomeric) (Homo sapiens, UniProt P28476).
T1 construct: gene GABRR2; full-length homomeric pentamer; cRNA from pGEMHE vector injected into Xenopus laevis oocytes
As to the kind of experiment: two-electrode voltage clamp, Xenopus oocytes. The class given is cell-based. (In two-electrode clamp one electrode senses voltage and the other passes current.)

T1 sequence (P28476 21-465): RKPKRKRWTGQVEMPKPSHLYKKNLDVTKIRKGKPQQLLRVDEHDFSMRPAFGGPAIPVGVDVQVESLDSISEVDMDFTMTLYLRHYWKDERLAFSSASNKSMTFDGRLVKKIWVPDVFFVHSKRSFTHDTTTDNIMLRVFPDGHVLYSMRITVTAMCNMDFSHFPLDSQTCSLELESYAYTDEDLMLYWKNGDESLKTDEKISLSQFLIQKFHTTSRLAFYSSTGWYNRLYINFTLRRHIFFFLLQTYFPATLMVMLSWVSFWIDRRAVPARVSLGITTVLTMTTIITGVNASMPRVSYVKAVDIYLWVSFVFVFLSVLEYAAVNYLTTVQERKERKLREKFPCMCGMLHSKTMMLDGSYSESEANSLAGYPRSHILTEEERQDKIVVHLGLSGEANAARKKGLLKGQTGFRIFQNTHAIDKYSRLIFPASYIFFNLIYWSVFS

In general, EC50 refers to the concentration at which the effect is half-maximal. As for `NCCCC(=O)O` [GABA], a half-maximal response (EC50) required 891 nM.

The values are drawn from article PMC3894180, “GABAA Receptors Containing ρ1 Subunits Contribute to In Vivo Effects of Ethanol in Mice” (PLoS ONE, 2014).
